From article PMC3813382 (The Journal of General Physiology, 2013)
Substitutions are numbered along the chain they refer to.

Assays:
[1] = target: T1, A266G Slo2.1 channels (Homo sapiens, UniProt Q6UVM3, A266G); experiment: Activation of ISlo2.1 by NFA, two-electrode voltage clamp in oocytes; format: cell-based
T1 sequence (Q6UVM3 1-1135 A266G): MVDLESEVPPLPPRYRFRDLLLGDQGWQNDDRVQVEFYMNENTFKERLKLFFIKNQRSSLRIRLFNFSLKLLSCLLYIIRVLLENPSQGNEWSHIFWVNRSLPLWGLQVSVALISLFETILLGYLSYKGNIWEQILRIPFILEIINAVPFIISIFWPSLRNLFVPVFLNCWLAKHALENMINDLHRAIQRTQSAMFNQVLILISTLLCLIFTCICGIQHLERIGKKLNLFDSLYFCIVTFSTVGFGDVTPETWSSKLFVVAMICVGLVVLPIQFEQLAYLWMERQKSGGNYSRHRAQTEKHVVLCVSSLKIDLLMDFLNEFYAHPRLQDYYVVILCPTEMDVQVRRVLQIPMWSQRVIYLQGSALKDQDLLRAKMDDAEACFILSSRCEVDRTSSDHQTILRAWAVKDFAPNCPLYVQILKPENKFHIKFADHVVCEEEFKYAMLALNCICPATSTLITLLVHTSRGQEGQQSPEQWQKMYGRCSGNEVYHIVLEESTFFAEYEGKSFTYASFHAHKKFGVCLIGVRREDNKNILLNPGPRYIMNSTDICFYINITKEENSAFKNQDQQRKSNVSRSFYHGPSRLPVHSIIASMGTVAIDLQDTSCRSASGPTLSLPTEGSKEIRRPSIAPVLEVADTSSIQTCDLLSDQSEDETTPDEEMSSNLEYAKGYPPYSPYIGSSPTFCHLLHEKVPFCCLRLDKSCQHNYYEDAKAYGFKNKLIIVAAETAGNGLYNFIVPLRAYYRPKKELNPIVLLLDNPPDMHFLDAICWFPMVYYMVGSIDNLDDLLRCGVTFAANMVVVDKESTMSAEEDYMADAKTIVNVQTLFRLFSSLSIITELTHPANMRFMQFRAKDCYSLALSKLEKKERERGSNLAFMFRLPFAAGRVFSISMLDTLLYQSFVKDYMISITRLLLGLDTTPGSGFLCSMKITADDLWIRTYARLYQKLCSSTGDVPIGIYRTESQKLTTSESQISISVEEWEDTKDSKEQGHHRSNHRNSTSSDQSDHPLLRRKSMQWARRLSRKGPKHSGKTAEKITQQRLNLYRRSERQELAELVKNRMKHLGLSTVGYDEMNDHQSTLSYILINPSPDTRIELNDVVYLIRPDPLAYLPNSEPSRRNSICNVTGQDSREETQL

[2] = target: T2, L209T Slo2.1 channels (Homo sapiens, UniProt Q6UVM3, L209T); experiment: as above; format: cell-based
T2 sequence (Q6UVM3 1-1135 L209T): T1 sequence (Q6UVM3 1-1135 A266G) with L209T, G266A

SMILES: O=C(O)c1cccnc1Nc1cccc(C(F)(F)F)c1 [NFA, niflumic acid]
- EC50 [1]: 380 ± 30 µM
- Hill coefficient nH of NFA activation ([1]; A266G): 1.2 ± 0.03
- EC50 [2]: 106 µM
- Hill coefficient nH of NFA activation ([2]; L209T): 1.39 ± 0.12
- NFA sensitivity of L209T relative to WT Slo2.1 ([2]; L209T vs WT): 20 fold
